According to PMC11831560, “Development of the Pyrido[2,3-d]pyrimidin-7(8H)-one Scaffold toward Potent and Selective NUAK1 Inhibitors” (ACS Medicinal Chemistry Letters, 2025):
Where “and” joins values, the source holds several entries; their conditions need not be identical. Identical values can stand only once.

How the values were obtained:
Assay in all cases: Kinase panel radiometric filter binding (33P-ATP)
Type in all cases: biochemical
Parameters in all cases: % activity remaining: dose or concentration left out as unconfirmed
[1] = biological target: YES1 (Homo sapiens, UniProt P07947); details: for % activity remaining: YES1
Procedure: (§1) Table S4: AMPKA kinase activity data (ADP-Glo assay)
(§2) Compound pIC50 (Fold selectivity
(§3) Table S5. Kinase selectivity screening for 9 and 24 at 1 µM against a general kinase panel of 140 targets
(§4) in radiometric filter binding assay using 33P-γ−ATP at the MRC PPU International Centre for Kinase
(§5) Profiling, University of Dundee. pIC50 values were determined for compounds with <20% activity
(§6) Kinase activity s.d. pIC50 activity s.d. pIC50

[2] = biological target: T1, MARK4 (Homo sapiens, UniProt Q96L34); details: for % activity remaining: MARK4
T1 construct: purchased MRC PPU
T1 sequence (Q96L34 1-752): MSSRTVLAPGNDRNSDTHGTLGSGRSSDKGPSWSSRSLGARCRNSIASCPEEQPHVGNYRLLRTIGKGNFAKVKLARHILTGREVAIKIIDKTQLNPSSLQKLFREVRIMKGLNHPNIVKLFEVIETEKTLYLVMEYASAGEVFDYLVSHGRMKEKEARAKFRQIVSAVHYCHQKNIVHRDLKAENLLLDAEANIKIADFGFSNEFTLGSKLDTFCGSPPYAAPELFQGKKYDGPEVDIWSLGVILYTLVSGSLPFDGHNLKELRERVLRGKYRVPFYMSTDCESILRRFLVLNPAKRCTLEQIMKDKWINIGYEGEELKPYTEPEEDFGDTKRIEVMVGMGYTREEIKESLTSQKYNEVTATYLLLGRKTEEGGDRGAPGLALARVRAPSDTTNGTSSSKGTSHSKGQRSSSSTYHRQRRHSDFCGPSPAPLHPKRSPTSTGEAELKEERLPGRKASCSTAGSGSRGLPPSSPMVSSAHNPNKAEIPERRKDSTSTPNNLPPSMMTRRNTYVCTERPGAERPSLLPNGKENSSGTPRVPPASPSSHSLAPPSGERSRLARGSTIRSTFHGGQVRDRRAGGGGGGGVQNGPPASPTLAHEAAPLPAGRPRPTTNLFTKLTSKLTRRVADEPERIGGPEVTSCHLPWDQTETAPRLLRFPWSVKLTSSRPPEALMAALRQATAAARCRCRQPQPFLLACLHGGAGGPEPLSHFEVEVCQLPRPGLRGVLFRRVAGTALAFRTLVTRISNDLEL
Procedure: as §1, §2, §3, §4, §5, §6

[3] = biological target: TrkA (Homo sapiens, UniProt P04629); details: for % activity remaining: TrkA
Procedure: as §1, §2, §3, §4, §5, §6

[4] = biological target: MST3 (Homo sapiens, UniProt Q9Y6E0); details: for % activity remaining: MST3
Procedure: as §1, §2, §3, §4, §5, §6

[5] = biological target: IR (Homo sapiens, UniProt P06213); details: for % activity remaining: IR
Procedure: as §1, §2, §3, §4, §5, §6

[6] = biological target: T2, JAK3 (Homo sapiens, UniProt P52333); details: for % activity remaining: JAK3
T2 sequence (P52333 1-1124): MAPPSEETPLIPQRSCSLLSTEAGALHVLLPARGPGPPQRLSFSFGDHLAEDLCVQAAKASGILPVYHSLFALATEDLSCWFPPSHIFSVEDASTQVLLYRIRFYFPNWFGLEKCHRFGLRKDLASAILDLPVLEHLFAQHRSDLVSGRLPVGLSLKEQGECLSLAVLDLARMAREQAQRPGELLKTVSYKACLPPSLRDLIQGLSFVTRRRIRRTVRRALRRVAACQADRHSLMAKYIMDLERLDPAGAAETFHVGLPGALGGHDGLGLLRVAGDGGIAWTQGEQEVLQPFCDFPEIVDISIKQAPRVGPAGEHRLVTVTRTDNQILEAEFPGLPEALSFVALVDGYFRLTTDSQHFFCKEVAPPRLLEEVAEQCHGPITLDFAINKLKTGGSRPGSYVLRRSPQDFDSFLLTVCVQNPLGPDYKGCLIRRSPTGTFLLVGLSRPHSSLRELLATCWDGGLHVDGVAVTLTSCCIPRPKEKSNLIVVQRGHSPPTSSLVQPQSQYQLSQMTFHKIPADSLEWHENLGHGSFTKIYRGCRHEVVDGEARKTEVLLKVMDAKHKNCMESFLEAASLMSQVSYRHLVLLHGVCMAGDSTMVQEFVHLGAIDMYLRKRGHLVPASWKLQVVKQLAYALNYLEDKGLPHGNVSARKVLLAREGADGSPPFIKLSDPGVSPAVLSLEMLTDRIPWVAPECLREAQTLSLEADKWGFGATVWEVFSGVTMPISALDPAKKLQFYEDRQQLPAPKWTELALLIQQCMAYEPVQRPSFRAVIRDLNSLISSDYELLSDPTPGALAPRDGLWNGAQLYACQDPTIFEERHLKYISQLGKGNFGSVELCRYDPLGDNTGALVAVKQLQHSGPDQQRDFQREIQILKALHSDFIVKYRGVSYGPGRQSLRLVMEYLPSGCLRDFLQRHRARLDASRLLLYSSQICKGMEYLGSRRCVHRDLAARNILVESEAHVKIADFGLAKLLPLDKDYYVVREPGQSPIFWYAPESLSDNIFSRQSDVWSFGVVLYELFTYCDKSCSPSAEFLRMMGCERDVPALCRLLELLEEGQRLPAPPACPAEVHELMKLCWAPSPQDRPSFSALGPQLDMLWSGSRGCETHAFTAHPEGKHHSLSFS
Procedure: as §1, §2, §3, §4, §5, §6

[7] = biological target: SIK2 (Homo sapiens, UniProt Q9H0K1); details: for % activity remaining: SIK2
Procedure: as §1, §2, §3, §4, §5, §6

[8] = biological target: T3, TAK1 (Homo sapiens, UniProt O43318); details: for % activity remaining: TAK1
T3 sequence (O43318 1-303 limits assumed): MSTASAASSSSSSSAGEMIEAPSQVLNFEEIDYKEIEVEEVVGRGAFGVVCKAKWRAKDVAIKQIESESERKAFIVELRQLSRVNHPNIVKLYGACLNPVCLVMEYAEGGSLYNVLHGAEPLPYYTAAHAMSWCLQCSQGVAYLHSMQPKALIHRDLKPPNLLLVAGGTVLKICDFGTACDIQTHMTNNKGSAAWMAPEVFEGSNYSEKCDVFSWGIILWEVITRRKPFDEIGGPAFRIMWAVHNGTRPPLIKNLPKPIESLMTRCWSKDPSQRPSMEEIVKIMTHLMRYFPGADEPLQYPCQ
Procedure: as §1, §2, §3, §4, §5, §6

[9] = radiometric filter binding panel

Sequence of YES1 (P07947 whole entry, species assumed): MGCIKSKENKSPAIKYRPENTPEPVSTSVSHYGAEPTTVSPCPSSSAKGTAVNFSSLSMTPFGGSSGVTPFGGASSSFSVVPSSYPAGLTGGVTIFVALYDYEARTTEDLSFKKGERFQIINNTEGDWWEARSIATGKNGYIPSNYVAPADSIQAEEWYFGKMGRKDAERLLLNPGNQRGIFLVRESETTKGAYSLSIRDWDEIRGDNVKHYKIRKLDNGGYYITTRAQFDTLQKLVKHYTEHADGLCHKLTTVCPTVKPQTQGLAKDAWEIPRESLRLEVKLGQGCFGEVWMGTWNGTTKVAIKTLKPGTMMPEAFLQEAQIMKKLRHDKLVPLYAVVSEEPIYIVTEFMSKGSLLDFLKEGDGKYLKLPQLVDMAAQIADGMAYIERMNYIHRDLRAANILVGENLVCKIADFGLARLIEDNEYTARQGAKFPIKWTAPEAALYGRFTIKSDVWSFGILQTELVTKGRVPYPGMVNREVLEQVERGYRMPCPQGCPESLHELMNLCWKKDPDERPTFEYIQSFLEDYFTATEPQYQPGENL
Sequence of SIK2 (Q9H0K1 whole entry, species assumed): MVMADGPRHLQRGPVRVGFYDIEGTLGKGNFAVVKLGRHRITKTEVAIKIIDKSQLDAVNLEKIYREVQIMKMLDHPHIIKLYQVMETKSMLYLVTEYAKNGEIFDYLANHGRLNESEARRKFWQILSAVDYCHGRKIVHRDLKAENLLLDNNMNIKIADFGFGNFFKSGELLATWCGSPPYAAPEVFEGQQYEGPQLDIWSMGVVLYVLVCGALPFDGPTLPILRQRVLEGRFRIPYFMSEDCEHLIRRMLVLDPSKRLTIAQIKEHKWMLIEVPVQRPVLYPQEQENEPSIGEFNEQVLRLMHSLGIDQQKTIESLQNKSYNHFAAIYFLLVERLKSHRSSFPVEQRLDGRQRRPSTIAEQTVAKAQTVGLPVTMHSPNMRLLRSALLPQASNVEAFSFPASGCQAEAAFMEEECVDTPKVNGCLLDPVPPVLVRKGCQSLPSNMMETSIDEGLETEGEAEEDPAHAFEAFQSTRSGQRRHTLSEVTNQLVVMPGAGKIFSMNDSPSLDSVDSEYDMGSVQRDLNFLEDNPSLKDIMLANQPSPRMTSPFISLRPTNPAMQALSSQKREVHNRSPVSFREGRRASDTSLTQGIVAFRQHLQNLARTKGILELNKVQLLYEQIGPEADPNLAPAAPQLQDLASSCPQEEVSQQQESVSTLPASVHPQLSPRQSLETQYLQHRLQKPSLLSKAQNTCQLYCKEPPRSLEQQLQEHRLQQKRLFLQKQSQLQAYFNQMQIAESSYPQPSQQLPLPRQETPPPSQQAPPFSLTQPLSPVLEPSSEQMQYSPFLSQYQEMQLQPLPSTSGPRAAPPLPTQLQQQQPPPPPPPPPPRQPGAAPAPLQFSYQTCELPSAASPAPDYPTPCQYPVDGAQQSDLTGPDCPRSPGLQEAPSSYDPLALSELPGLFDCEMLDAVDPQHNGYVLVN
Sequence of IR (P06213 28-1382): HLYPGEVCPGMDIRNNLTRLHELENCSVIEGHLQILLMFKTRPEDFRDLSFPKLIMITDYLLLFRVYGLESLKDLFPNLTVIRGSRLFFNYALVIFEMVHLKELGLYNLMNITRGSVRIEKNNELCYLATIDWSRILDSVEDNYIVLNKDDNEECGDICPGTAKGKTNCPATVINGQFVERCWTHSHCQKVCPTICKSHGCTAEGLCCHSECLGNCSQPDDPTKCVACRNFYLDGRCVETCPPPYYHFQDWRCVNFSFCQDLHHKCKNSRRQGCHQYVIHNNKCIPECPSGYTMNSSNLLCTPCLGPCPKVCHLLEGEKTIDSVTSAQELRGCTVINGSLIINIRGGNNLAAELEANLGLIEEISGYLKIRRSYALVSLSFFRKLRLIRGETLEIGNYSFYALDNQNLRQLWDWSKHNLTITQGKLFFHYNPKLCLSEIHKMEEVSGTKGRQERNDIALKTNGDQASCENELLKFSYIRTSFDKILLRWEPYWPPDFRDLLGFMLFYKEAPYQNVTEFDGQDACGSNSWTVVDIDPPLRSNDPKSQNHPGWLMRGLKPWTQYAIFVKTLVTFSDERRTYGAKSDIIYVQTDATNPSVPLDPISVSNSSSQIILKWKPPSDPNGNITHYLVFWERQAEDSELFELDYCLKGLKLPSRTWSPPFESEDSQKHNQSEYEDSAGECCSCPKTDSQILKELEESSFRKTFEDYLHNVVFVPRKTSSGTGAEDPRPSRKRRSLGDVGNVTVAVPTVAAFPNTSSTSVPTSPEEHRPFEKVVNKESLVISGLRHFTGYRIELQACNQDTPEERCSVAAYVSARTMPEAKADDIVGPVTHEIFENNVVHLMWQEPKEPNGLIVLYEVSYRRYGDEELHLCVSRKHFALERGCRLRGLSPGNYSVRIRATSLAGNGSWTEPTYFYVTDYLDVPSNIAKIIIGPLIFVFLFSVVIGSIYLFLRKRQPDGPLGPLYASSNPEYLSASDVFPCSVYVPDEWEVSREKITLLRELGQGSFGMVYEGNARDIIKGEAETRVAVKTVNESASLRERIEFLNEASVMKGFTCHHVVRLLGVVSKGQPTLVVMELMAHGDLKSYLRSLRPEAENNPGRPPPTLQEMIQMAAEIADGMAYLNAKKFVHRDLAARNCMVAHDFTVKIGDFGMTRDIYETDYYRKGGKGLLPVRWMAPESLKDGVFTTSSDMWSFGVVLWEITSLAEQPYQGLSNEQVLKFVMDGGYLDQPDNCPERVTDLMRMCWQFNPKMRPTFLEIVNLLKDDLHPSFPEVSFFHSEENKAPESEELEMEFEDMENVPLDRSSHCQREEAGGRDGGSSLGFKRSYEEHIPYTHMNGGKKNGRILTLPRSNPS
Sequence of TrkA (P04629 33-796, species assumed): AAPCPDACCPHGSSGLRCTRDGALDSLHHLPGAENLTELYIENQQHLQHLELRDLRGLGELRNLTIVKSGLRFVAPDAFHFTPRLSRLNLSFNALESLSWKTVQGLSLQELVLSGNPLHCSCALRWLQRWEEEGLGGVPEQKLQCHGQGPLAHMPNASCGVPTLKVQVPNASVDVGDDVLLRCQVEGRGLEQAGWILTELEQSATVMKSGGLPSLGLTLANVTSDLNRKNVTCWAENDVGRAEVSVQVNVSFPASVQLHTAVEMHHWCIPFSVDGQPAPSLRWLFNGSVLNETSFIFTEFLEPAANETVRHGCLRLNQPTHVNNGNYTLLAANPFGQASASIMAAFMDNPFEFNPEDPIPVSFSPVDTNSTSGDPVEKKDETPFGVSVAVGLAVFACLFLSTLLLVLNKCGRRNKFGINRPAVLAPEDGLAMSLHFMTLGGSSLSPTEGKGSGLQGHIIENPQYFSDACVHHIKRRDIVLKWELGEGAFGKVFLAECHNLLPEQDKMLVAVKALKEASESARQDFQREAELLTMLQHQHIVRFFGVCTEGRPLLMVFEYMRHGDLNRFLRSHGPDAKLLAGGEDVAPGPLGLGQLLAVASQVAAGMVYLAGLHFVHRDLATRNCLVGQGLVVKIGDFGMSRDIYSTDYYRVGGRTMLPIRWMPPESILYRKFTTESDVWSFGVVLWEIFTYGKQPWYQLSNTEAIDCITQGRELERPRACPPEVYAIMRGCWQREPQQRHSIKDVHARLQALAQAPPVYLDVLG
Sequence of MST3 (Q9Y6E0 whole entry, species assumed): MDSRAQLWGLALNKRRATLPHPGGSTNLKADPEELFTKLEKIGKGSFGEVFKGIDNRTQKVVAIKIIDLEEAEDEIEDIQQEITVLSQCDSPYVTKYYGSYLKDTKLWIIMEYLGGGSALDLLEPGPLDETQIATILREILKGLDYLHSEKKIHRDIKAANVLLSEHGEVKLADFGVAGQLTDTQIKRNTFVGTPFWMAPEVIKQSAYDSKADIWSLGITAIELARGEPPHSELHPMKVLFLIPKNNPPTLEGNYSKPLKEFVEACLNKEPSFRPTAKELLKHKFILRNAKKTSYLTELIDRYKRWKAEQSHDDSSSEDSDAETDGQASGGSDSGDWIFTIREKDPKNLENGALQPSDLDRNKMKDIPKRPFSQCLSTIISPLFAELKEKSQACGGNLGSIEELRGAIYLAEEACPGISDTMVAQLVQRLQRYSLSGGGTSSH

| SMILES | % activity remaining [1] [%] | % activity remaining [2] [%] | % activity remaining [3] [%] | % activity remaining [4] [%] | % activity remaining [5] [%] | % activity remaining [6] [%] | JAK3 pIC50 [6, 9] | IC50 ([6]; radiometric filter binding panel, read-out: JAK3 pIC50 (converted)) [µM] | % activity remaining [7] [%] | SIK2 pIC50 [7, 9] | % activity remaining [8] [%] | YES1 pIC50 [1, 9] | IC50 ([1]; radiometric filter binding panel, read-out: YES1 pIC50 (converted)) [µM] | inhibition at 1 µM ([2]; at 1 μM, radiometric filter binding assay, Dundee, read-out: MARK4 single point % inhibition) [%] | IC50 [3] [µM] | TrkA pIC50 [3, 9] | MST3 pIC50 [4, 9] | IC50 ([4]; radiometric filter binding panel, read-out: MST3 pIC50 (converted)) [µM] | IC50 ([5]; radiometric filter binding panel, read-out: IR pIC50 (converted)) [µM] | IC50 ([8]; radiometric filter binding panel, read-out: TAK1 pIC50 (converted)) [µM] |
| --- | --- | --- | --- | --- | --- | --- | --- | --- | --- | --- | --- | --- | --- | --- | --- | --- | --- | --- | --- | --- |
| CN1C2CC1CN(c1ccc(Nc3ncc4ccn(CC5CCOCC5)c4n3)cc1)C2 [Compound 24] | 46 | 95 | 72 | 84 | 87 | 7 | 7.6 | 0.0234 | 13 | 7.1 and 7.09 | 110 |  |  |  |  |  |  |  |  |  |
| Cc1cc(=O)n(C2CCCC2)c2nc(Nc3ccc(N4CC5CC(C4)N5C)cc3)ncc12 [Compound 9] | 13 | 49 | 12 | 17 | 14 | 22 |  |  | 44 |  | 6 | > 7 | 0.0759 | 51 | 0.0977 | > 7 | > 7 | 0.112 | 0.263 | 0.209 |
